{"source": "paper PMC5908784", "about": "“Extracellular loops 2 and 3 of the calcitonin receptor selectively modify agonist binding and efficacy” (Biochemical Pharmacology, 2018)", "test_in_all_cases": "Homologous whole cell competition binding", "details_in_all_cases": "homologous competition of 125I-sCT(8-32), whole cells, mean ± S.E.M., SEM", "key": {"[1]": {"target": "T1, hCTR L297A (Homo sapiens, UniProt P30988, L297A)", "T1 construct": "c-Myc (N); expressed in transfected cells", "T1 sequence (P30988 25-474 L297A)": "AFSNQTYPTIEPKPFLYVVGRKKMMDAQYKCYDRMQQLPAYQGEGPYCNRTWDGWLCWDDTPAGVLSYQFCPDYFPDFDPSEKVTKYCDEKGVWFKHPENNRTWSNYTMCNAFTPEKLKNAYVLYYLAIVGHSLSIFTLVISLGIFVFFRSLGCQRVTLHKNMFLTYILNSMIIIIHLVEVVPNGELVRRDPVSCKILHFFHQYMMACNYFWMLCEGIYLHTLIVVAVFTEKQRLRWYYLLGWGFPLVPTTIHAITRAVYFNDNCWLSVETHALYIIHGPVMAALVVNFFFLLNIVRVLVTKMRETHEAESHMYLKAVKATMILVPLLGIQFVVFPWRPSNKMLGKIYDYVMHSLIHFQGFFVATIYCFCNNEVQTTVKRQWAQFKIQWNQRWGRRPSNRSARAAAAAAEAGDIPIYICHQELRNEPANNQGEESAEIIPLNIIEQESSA", "method": "(§1) Homologous radioligand competition was performed on 2.5 × 10^4 cells/well seeded into 96-well trays and cultured overnight. Cells were incubated overnight at 4 °C with two concentrations of ^125I-sCT(8-32) (between 25 and 100 pM; specific activity, 2000 Ci/mmol^9) and serial dilutions of non-iodinated sCT(8-32). Non-bound ligand was removed and bound ligand activity was measured using a γ counter (Wallac Wizard 1470 Gamma Counter, Perkin Elmer, 80% counter efficiency). Values were normalized against non-specific binding (0%) defined by the presence of 1 μM of unlabelled sCT(8-32), and total ligand bound in absence of competing sCT(8-32) (100%).\n(§2) IC50 and Bmax values were estimated from competitive inhibition of ^125I-sCT(8-32) binding using a 3-parameter logistic equation (log(inhibitor versus response)) in Prism (v7; Graphpad). Data were corrected for radioligand occupancy using the Cheng-Prusoff equation in Prism; as such data are reported as pKi. Emax and EC50 were estimated from concentration-response curves using with a 3-parameter logistic equation in Prism (v7). These values are a composite of functional affinity, efficacy and stimulus response coupling. The Black and Leff operational model of agonism was applied to separate effects on pathway-specific efficacy (τ) from those that modify ligand functional affinity (pKA). Derived τ values were normalized to experimentally determined levels of cell surface expression to provide a measure of efficacy (τc) that is independent of affinity and altered cell surface receptor expression. pKi, pKA and log τc values for mutant receptors were statistically compared to those of the WT receptor using a one-way analysis of variance (ANOVA) and Dunnett’s post-test. Significance was accepted at P < 0.05."}, "[2]": {"target": "T2, hCTR P360A (Homo sapiens, UniProt P30988, P360A)", "T2 construct": "expressed in transfected cells", "T2 sequence (P30988 25-474 P360A)": "T1 sequence (P30988 25-474 L297A) with A273L, P336A", "method": "as §1, §2"}, "[3]": {"target": "T3, hCTR T280A (Homo sapiens, UniProt P30988, T280A)", "T3 construct": "expressed in transfected cells", "T3 sequence (P30988 25-474 T280A)": "T1 sequence (P30988 25-474 L297A) with T256A, A273L", "method": "as §1, §2"}, "[4]": {"target": "T4, hCTR V293A (Homo sapiens, UniProt P30988, V293A)", "T4 construct": "c-Myc (N); expressed in transfected cells", "T4 sequence (P30988 25-474 V293A)": "T1 sequence (P30988 25-474 L297A) with V269A, A273L", "method": "as §1, §2"}}, "note": "Substitutions are numbered along the chain they refer to. Where no end group is shown, it is not given here."}
{"substance": "VLGKLSQELHKLQTYPRTNTGSGTP-NH2 [sCT(8-32)]", "values": [{"measurement": "Ki", "setting": "[1]", "value": 0.0631, "unit": "nM"}, {"measurement": "Ki", "setting": "[2]", "value": 0.603, "unit": "nM"}, {"measurement": "Ki", "setting": "[3]", "value": 0.245, "unit": "nM"}, {"measurement": "Ki", "setting": "[4]", "value": 0.178, "unit": "nM"}]}
